Data reported in patent US8889878B2, “Haloalky-substituted amides as insecticides and acaricides” (Bayer CropScience AG, priority 2009, dated 2014).

How the values were obtained:
Ctenocephalides felis = Ctenocephalides felis oral (CTECFE), Example 2; assay type: in vivo; details: application rate 20 ppm in citrated cow's blood, after 2 days
Protocol: Ctenocephalides felis Oral ([…]) • Solvent: 1 part by weight of dimethyl sulphoxide For the purpose of preparing an active ingredient formulation, 10 mg of active ingredient are mixed with 0.5 ml of dimethyl sulphoxide. A portion of the concentrate was diluted with citrated cow's blood and the desired concentration was prepared. 20 unfed adult fleas (Ctenocephalides felis) are placed into a chamber sealed at the top and bottom with gauze. A metal cylinder with its lower end sealed with Parafilm is placed onto the chamber. The cylinder contains the blood-active ingredient preparation, which can be consumed by the fleas through the Parafilm membrane. After 2 days, the kill rate in % is determined. 100% means that all fleas were killed; 0% means that no fleas were killed.

[1] = logP by HPLC on reverse-phase column (EEC Directive 79/831 Annex V.A8); assay type: physicochemical; details: for logP: HPLC-MS
Protocol: The logP values reported in the above Tables and Preparation Examples were determined according to EEC Directive 79/831 Annex V.A8 by HPLC (High Performance Liquid Chromatography) on a reverse-phase column (C18). Temperature 43° C.

Lucilia cuprina larvae [2] = assay: Lucilia cuprina test (LUCICU), Example 3; assay type: in vivo; details: application rate 20 ppm, treated horsemeat, after 2 days
Protocol: (§1) Lucilia cuprina Test (LUCICU) • Solvent: dimethyl sulphoxide To prepare an active ingredient formulation, 10 mg of active ingredient are mixed with 0.5 ml of dimethyl sulphoxide, and the concentrate is diluted with water to the desired concentration. Vessels containing horsemeat which has been treated with the active ingredient formulation of the desired concentration are populated with Lucilia cuprina larvae. After 2 days, the kill rate in % is determined. 100% means that all larvae were killed; 0% means that no larvae were killed.

Boophilus microplus [3] = assay: Boophilus microplus test (BOOPMI injection), Example 11; assay type: in vivo; details: application rate 20 μg/animal, injected into abdomen, after 7 days
How it was run: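 Adult ticks injected in the abdomen with compound diluted in DMSO, then held in a climate-controlled room. Efficacy in % determined after 7 days from fertile eggs laid; 100% means no tick laid fertile eggs.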

Boophilus microplus [4] = assay: Boophilus microplus test (BOOPMI injection), Example 1; assay type: in vivo; details: application rate 20 μg/animal, injected into abdomen, after 7 days
Protocol: Boophilus microplus Test (BOOPMI Injection) • Solvent: dimethyl sulphoxide To prepare an active ingredient formulation, 10 mg of active ingredient are mixed with 0.5 ml of solvent and the concentrate is diluted with water to the desired concentration. The active ingredient solution was injected into the abdomen (Boophilus microplus), and the animals were transferred to dishes and stored in a climate-controlled room. The efficacy was assessed by the number of fertile eggs laid. After 7 days, the efficacy in % is determined. 100% means that no tick laid fertile eggs.

Musca domestica adults = assay: Musca domestica test (MUSCDO), Example 14; assay type: in vivo; details: application rate 100 ppm, treated sponge, after 2 days
Protocol: Musca domestica Test (MUSCDO) • Solvent: dimethyl sulphoxide To prepare an appropriate active ingredient formulation, 10 mg of active ingredient are mixed with 0.5 ml of dimethyl sulphoxide, and the concentrate is diluted with water to the desired concentration. Vessels containing a sponge which has been treated with the active ingredient formulation of the desired concentration are populated with Musca domestica adults. After 2 days, the kill rate in % is determined. 100% means that all flies were killed; 0% means that no flies were killed.

Lucilia cuprina larvae [5] = assay: Lucilia cuprina test (LUCICU), Example 13; assay type: in vivo; details: application rate 100 ppm, treated horsemeat, after 2 days
Protocol: as §1, with “prepare an appropriate active ingredient” for “prepare an active ingredient”, “populated with about 20 Lucilia cuprina” for “populated with Lucilia cuprina”

[6] = tested on: green peach aphid (Myzus persicae); assay: Myzus test (MYZUPE spray treatment), Example 17; assay type: in vivo; details: china cabbage leaf discs sprayed, after 6 days
How it was run: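 Chinese cabbage leaf discs infested with all aphid stages were sprayed with compound formulated in acetone/dimethylformamide plus alkylaryl polyglycol ether emulsifier, diluted in emulsifier-containing water. Mortality read after 6 days as % efficacy (100% all killed, 0% none killed).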

[7] = tested on: mustard beetle (Phaedon cochleariae); assay: Phaedon test (PHAECO spray treatment), Example 7; assay type: in vivo; details: application rate 20 g/ha, china cabbage leaf discs sprayed, after 7 days
How it was run: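 Spray formulation (acetone/DMF with alkylaryl polyglycol ether, diluted in emulsifier-containing water) applied to Chinese cabbage leaf discs, which were dried and then stocked with mustard beetle larvae. Efficacy scored at 7 days as % larvae killed (100% all, 0% none).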

[8] = tested on: red spider mite (Tetranychus urticae); assay: Tetranychus test, OP-resistant (TETRUR spray treatment), Example 8; assay type: in vivo; details: application rate 20 g/ha, common bean leaf discs sprayed, after 6 days
How it was run: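 Bean (Phaseolus vulgaris) leaf discs carrying all stages of OP-resistant Tetranychus urticae sprayed with compound in acetone/DMF with emulsifier, diluted in water to the test concentration. Mortality scored after 6 days as % efficacy (100% = all mites killed).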

[9] = tested on: armyworm (Spodoptera frugiperda); assay: Spodoptera frugiperda test (SPODFR spray treatment), Example 15; assay type: in vivo; details: application rate 100 g/ha, maize leaf discs sprayed, after 7 days
How it was run: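 Maize leaf discs sprayed with active ingredient in acetone/DMF with alkylaryl polyglycol ether emulsifier, diluted in water, then populated with caterpillars after drying. Efficacy in % after 7 days: 100% all caterpillars killed, 0% none.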

chromatographic logP ([1]; reverse-phase C18 HPLC column, pH 2.7, HPLC, C18 reverse phase, 43° C., acidic range pH 2.7, calibration with alkan-2-ones) | SMILES | kill rate in % (efficacy) (Ctenocephalides felis) [%] | logP [1] | kill rate in % (efficacy) (Lucilia cuprina larvae [2]) [%] | efficacy in % (fertile eggs laid) (Boophilus microplus [3]) [%] | efficacy in % (fertile eggs laid) (Boophilus microplus [4]) [%] | kill rate in % (efficacy) (Musca domestica adults) [%] | kill rate in % (efficacy) (Lucilia cuprina larvae [5]) [%] | efficacy in % ([6]; application rate 100 g/ha) [%] | pest or weed control at 0.02 mg (Boophilus microplus [3]; Rhipicephalus microplus, 168 h, read-out: efficacy in % (fertile eggs laid)) [%] | efficacy in % [7] [%] | efficacy in % [8] [%] | efficacy in % ([6]; application rate 500 g/ha) [%] | efficacy in % [9] [%]
 | O=C(/C=C/c1ccc(C(=O)NC2CC2)c(C(F)(F)F)c1)NC(c1cc(Cl)cc(Cl)c1)C(F)(F)F (stereo not drawn) [Ia-24] | 100 | HPLC-MS: logP = 3.5; mass | 80 | 100 | 100 |  |  |  |  |  |  |  | 
 | O=C(/C=C/c1ccc(C(=O)NCC(F)(F)F)c(Br)c1)NC(c1cccc(C(F)(F)F)c1)C(F)(F)F (stereo not drawn) [Ia-45] | 98 | HPLC-MS: logP = 3.60; mass | 100 | 100 | 100 | 100 |  |  |  |  |  |  | 
 | O=C(/C=C/c1ccc(C(=O)NC2CC2)c(Br)c1)NC(c1cccc(C(F)(F)F)c1)C(F)(F)F (stereo not drawn) [Ia-42] | 100 | HPLC-MS: logP = 3.23; mass | 100 | 100 | 100 |  |  |  |  |  |  |  | 
 | O=C(/C=C/c1ccc(C(=O)NCc2ccccc2)c(C(F)(F)F)c1)NC(c1cccc(C(F)(F)F)c1)C(F)(F)F (stereo not drawn) [Ia-31] | 95 | HPLC-MS: logP = 3.68; mass |  | 100 | 100 |  | 90 |  |  |  |  |  | 
 | O=C(/C=C/c1ccc(C(=O)NC2CSC2)c(Cl)c1)NC(c1cccc(C(F)(F)F)c1)C(F)(F)F (stereo not drawn) [Ia-152] |  | HPLC-MS: logP = 3.51; mass |  | 100 |  |  | 90 | 80 |  |  |  |  | 
3.68 | O=C(/C=C/c1ccc(C(=O)NC2CC2)c(C(F)(F)F)c1)NC(c1cc(Cl)cc(C(F)(F)F)c1)C(F)(F)F (stereo not drawn) [Ia-40, 4-[(1E,Z)-3-({1-[3-Chloro-5-(trifluoromethyl)phenyl]-2,2,2-trifluoroethyl}amino)-3-oxoprop-1-en-1-yl]-N-cyclopropyl-2-(trifluoromethyl)benzamide] | 100 |  | 90 |  | 100 | 85 |  |  | 100 |  |  |  | 
 | O=C(/C=C/c1ccc(C(=O)NCc2ccc(Cl)nc2)c(C(F)(F)F)c1)NC(c1cccc(C(F)(F)F)c1)C(F)(F)F (stereo not drawn) [Ia-80] | 100 | HPLC-MS: logP = 3.65; mass |  | 100 | 100 |  | 80 |  |  | 100 |  |  | 
 | NC(=O)c1ccc(/C=C/C(=O)NC(c2cccc(C(F)(F)F)c2)C(F)(F)F)cc1C(F)(F)F (stereo not drawn) [Ia-142] |  | HPLC-MS: logP = 2.89; mass |  | 100 |  | 90 | 90 | 100 |  |  |  |  | 
 | O=C(/C=C/c1ccc(C(=O)NC2COC2)c(Br)c1)NC(c1cccc(C(F)(F)F)c1)C(F)(F)F (stereo not drawn) [Ia-94] |  | HPLC-MS: logP = 2.8 mass |  | 100 |  |  | 95 |  |  | 100 | 80 |  | 
 | Cc1cc(/C=C/C(=O)NC(c2cccc(C(F)(F)F)c2)C(F)(F)F)ccc1C(=O)NCc1ccccn1 (stereo not drawn) [Ia-22] | 100 | HPLC-MS: logP = 2.65; mass | 90 | 100 | 100 |  |  |  |  | 100 |  | 100 | 
 | CC(NC(=O)c1ccc(/C=C/C(=O)NC(c2c(F)cccc2F)C(F)(F)F)cc1C(F)(F)F)C(F)(F)F (stereo not drawn) [Ia-29] |  | HPLC-MS: logP = 3.41; mass |  | 100 | 100 |  | 80 |  |  |  |  |  | 
 | O=C(/C=C/c1ccc(C(=O)NC2CC2)c(Cl)c1)NC(c1cccc(C(F)(F)F)c1)C(F)(F)F (stereo not drawn) [Ia-43] | 100 | HPLC-MS: logP = 3.22; mass | 100 | 100 | 100 |  |  |  |  | 100 |  | 80 | 
 | CN(C(=O)c1ccc(/C=C/C(=O)NC(c2cccc(C(F)(F)F)c2)C(F)(F)F)cc1C(F)(F)F)C1CC1 (stereo not drawn) [Ia-60] | 100 | HPLC-MS: logP = 3.62; mass | 90 | 100 | 100 | 95 |  |  |  | 100 | 90 |  | 
 | O=C(/C=C/c1ccc(C(=O)NCc2ccc(F)cn2)c(C(F)(F)F)c1)NC(c1cccc(C(F)(F)F)c1)C(F)(F)F (stereo not drawn) [Ia-73] | 95 | HPLC-MS: logP = 3.31; mass |  | 100 | 100 |  | 80 |  |  | 100 | 100 |  | 
 | CNC(=O)c1ccc(/C=C/C(=O)NC(c2cccc(C(F)(F)F)c2)C(F)(F)F)cc1C(F)(F)F (stereo not drawn) [Ia-147] |  | HPLC-MS: logP = 3.09; mass |  | 100 |  |  | 80 |  |  |  |  |  | 100
 | CC(NC(=O)c1ccc(/C=C/C(=O)NC(c2cccc(C(F)(F)F)c2)C(F)(F)F)cc1C(F)(F)F)c1ccccn1 (stereo not drawn) [Ia-128] |  | HPLC-MS: logP = 3.22; mass |  | 100 |  |  | 90 |  |  |  |  |  | 
